In test [1] the test system is X. citri subsp. citri strain 306. Put plainly: Determination of minimum inhibitory concentrations (MICs) in NB medium, 96-well plate. Format: cell-based, Xanthomonas citri subsp. citri. As to conditions: 48 h. As for the experimental part:
Xac strain 306 was grown in NB at 28° C. with shaking at 200 rpm for 7 h. The cultures were standardized to an OD600 of 0.03 (5×10^7 colony forming unit (CFU)/mL) in NB and then aliquoted into wells of a 96-well plate, 190 μL per well. The initial test concentrations of the compounds were diluted (1:20) in the culture (10 μl of compound in 190 μl of culture) and incubated at 28° C. under stationary conditions. The cultures were monitored at 24 and 48 h at OD600, and the lowest concentration resulting in no growth after 48 h compared to the control samples was defined as the MIC for Xac strain 306. All determinations were conducted in eight replicate wells and repeated three times.

Another test concerns Xac 306 biofilm cells. Put plainly: Resistance of Xac biofilm cells to copper, cell viability assay in glass tubes. Format: cell-based, Xanthomonas citri subsp. citri. As to conditions: CuSO4 (1.0 mM) alone, 24 h. As for the experimental part:
The level of copper resistance of biofilms was evaluated using a cell viability assays. Briefly, Xac biofilms were prepared using NB with stationary incubation in glass tubes as described above. After 48 h-incubation, the cultures were removed and bacterial cells attached to the tubes were gently washed three times with SDW. One milliliter of fresh NB with CuSO4 (1.0 mM), D-leucine (10 mM) or IAN (100 μg/mL), or a combination of these compounds was added to each tube. NB alone was used as control. Tubes were kept at room temperature for 24 h and shaken vigorously for 5 min. The suspensions were diluted in 10-fold series, and 10 μL of each dilution spotted in triplicate on NA plate. Plates were incubated at 28° C. for 48 to 72 h prior to assessing bacterial growth. Colonies that grew near the dilution end-point were counted and bacterial populations in the initial suspensions prior to dilution were calculated. Each treatment compromises four replicates and the experiment repeated three times.

For test [2], the system named is Xac 306 on grapefruit leaves. The test is described as follows: Plant test in greenhouse, spray inoculation of grapefruit leaves. Format: in vivo, Xanthomonas citri subsp. citri. Here is the method:
The effect of selected biofilm inhibitors on Xac infection/virulence-was investigated using 20-week-old potted grapefruit (Citrus paradise cv. Duncan grapefruit) plants in a quarantine greenhouse at the Citrus Research and Education Center, Lake Alfred, Fla. Copper (CuSO4, 100 μg/mL), D-leucine (10 mM), IAN (100 μg/mL) and a combination of these compounds were individually prepared in 100 ml of SDW. Bacterial inoculum was prepared by growing Xac 306 on NA plates at 28° C. for 48 h, suspending in SDW, adjusting concentration to approximately OD600=0.3 (5×10^8 CFU/mL). The inoculation was performed by a spray method as described previously (Li and Wang, 2012) with modifications. Briefly, the abaxial surfaces of fully expanded, immature leaves of each plant were sprayed with the following treatments: SDW, Xac 306, and Xac 306 combined with CuSO4 (100 μg/mL), D-leucine (10 mM), IAN (100 μg/mL), or a combination of these compounds. Silwett-L77 (silicone-polyether copolymer, Fisher) was added to each treatment at a 0.03% (V/V) final concentration. After inoculation, the plants were covered with plastic bags for 24 h to maintain a high (>90%) relative humidity and then kept in a greenhouse (approximately 60% relative humidity) for symptom development. All inoculations included a minimum of three immature leaves at a similar developmental stage from each plant, and each treatment comprised four plants. The experiments were repeated three times independently. SDW was applied as a negative control, and Xac306 mixed with SDW as positive control. To determine whether the timing of application of biofilm inhibitors in relation to Xac306 affected canker symptom suppression, the biofilm inhibitors were inoculated on leaves 6 h prior to or after inoculation with Xac306.
For bacterial population assays, the leaves of grapefruit plants were inoculated as described above. Two leaf discs randomly selected from each of three inoculated leaves were cut with a cork borer (0.8 cm in diameter) and then ground in 1 mL of SDW. The suspensions were serially diluted and plated on NA plates containing rifamycin. After incubation at 28° C. for 48 h, bacterial colonies were counted and the number of CFU per square centimeter of leaf tissue was calculated. The assays were repeated three times independently.

The subject of a further test is Xac306 biofilm formation. The test is described as follows: Static biofilm formation assay in 96-well polystyrene plates with crystal violet staining. Format: cell-based, Xanthomonas citri subsp. citri. As to conditions: 0 to 20 mM for D-leucine and D-serine; 0 to 150 μg/mL for IAN. Here is the method:
A static biofilm formation assay in 96-well polystyrene plates coupled with CV staining was performed as previously reported with modifications (Li and Wang, 2011). Briefly, a 96-well polystyrene plate (Nunclon surface, Nuncbrand, Denmark) was prepared with 170 μL NB plus 1.0% glucose per well. Aliquots of 20 μL each of the different concentrations of the tested compound were pipetted into eight wells containing 170 μL of NB plus 1.0% glucose. To each of these wells was added 10 μL of the standardized overnight Xac 306 culture (OD600=1.0). Control wells contained NB plus 1.0% glucose and SDW or 0.1% DMSO as a sterility control, or standardized overnight Xac 306 culture as a growth control. The plate was covered by a MicroWell lid (Nunclon), sealed with parafilm to prevent evaporation and incubated at 28° C. for 48 h without shaking. After incubation, the planktonic growth was measured at OD600. To quantify the amount of biofilms formed on the surfaces of the wells, the culture was removed from the wells. After drying, the wells were washed twice with 200 μl of SDW for 5 min, allowed to dry then 200 μl of 0.1% CV added. After 30 minutes, the CV was removed. The wells were washed with excess SDW to remove unbound CV and air dried in an inverted position for 2 h. Afterward, 200 μl of 95% ethanol was added to the wells and incubated for 30 min at room temperature to elute bound CV. The eluted CV was 2-fold diluted in double distilled water and the absorbance at 590 nm was measured. Each data point was averaged from eight replicate wells.

≈ marks a conversion by molar mass, not a printed value.

Regarding `O=S(=O)([O-])[O-].[Cu+2]` [CuSO4], the “MIC of CuSO4 in the presence of D-leucine and IAN” value in test [1] (D-leucine 10 mM and IAN 100 μg/mL, planktonic cells, NB medium) stood at 250 µM. Further, the “MIC of CuSO4 in the presence of D-leucine” value in test [1] (D-leucine 10 mM, planktonic cells, NB medium) came out at 250 µM. For the same compound, the “MIC of CuSO4 in the presence of IAN” value in test [1] (IAN 100 μg/mL, planktonic cells, NB medium) came out at 250 µM. The compound also showed an MIC in test [1] (compound alone, NB medium, 28° C., stationary, OD600) of 500 µM. In the test on Xac 306 biofilm cells, the “viable cells in biofilms” value is recorded as 3×10^7 CFU/mL. In test [2] (D-leucine 10 mM, IAN 100 μg/mL, CuSO4 100 μg/mL), the “level of canker lesions on sprayed leaves” value is “less than that sprayed with the pathogen alone”. The “log reduction in the number of CFU compared to untreated control” value in test [2] (grapefruit leaves, 7 to 28 days after inoculation) is listed as ~1.0 log.
In the case of `N[C@H](CO)C(=O)O` [D-serine], the “dose dependence of Xac306 biofilm decrease” value with Xac306 biofilm formation was “decreased Xac306 biofilm in a dose-dependent manner”. The same compound gave an MIC in test [1] (Xanthomonas citri) of 8000 µM (≈ 841 µg/mL).

(Values after US10111431B2, “Application of biofilm formation inhibiting compounds enhances control of citrus canker” (priority 2013, dated 2018).)
